One data set relates to rabbit fibroblasts. The experiment in a line: Trypan blue exclusion test / cell counting, fibroblast proliferation. To be noted: for concentration at which inhibition of cell proliferation is significant: 24 hours exposure; for inhibition at 10 µg/mL / inhibition at 20 µg/mL / inhibition at 100 µg/mL: Oryctolagus cuniculus, Fibroblast, 24 h, read-out: inhibition of cell proliferation.

The conditions of data set [1]: sub-conjunctival injection, cited from earlier work.
The conditions of data set [2]: same conditions, Heller et al., 2005; cited from earlier work.
Data set [3] deals with human conjunctival cell line (Wong-Kilbourne derivative of Chang conjunctiva). Description: Neutral red test (cellular viability). It is filed as cell-based. The conditions noted are these: for cell viability decrease: concentrations up to 10 µg/ml; for IC50: Homo sapiens, 72 hours of exposure. On the procedure:
(§1) Normal culture development was assessed daily by phase-contrast microscopy. Confluent cultures were removed by gentle trypsin incubation, and cells were counted. For cytotoxicity experiments, cells were seeded into 96-well culture plates (18'000 cells per well; Nunc, Roskild, Denmark) until sub-confluence (culture surface covering nearly 70%) and were then exposed to the different formulations. Experiments were performed by microplate cold light fluorometry (Fluorolite 1000 Dynex; Issy-les-Moulineaux, France), as previously validated (Debbasch et al., 2001, Invest. Ophthalmol. Vis. Sci., 42, 642-652). According to the recommendations of the European Center for the Validation of Alternative Methods (ECVAM) and to previously validated methods in the Chang cell line, two cellular markers were evaluated: cellular viability and chromatin condensation. Cellular viability was evaluated with a neutral red (Fluka, Ronkonkoma, NY) test with fluorometric detection (excitation: 535 nm; emission: 600 nm). Hoechst 33342 (Molecular Probes, Eugene, OR) is an intercalating dye, which allows the determination of the total chromatin quantity variations and the degree of chromatin condensation. […] was used on cells at a final concentration of 10 µg/ml (excitation: 360 nm; emission: 450 nm). 0.5 mg/ml propidium iodide (Roche Diagnostics Corp., Meylan, France) was added to the Hoechst solution, to control necrotic cells, as previously validated. The supravital uptake of Hoechst 33342 combined with extrusion of propidium iodide was used as an assay for apoptosis as described in Belloc et al., 1994, Cytometry, 17, 59-65. […] It is defined by a series of cellular changes: (a) the cell shrinks, looses contact with neighbouring cells or surrounding matrix and starts to display intracellular proteins on its surface; (b) the chromatin in the nucleus condenses and the DNA is cleaved into small fragments; (c) the plasma membrane then begins to show a bubbled appearance and small membrane bound bodies break off containing intracellular material which can include nuclear matter and cellular organelles. These fragments are known as "apoptotic bodies" which are quickly removed by phagocytes or by neighbouring cells.
In these experiments, cell viability and chromatin condensation were evaluated after a 24 and 72 hour-incubation, with […] of 5-chlorouracil as compared with the same concentrations of 5-fluorouracil. The value of IC50 (concentration inhibiting 50% of cell population) was used to compare 5-FU and 5-CU cytotoxicities. Dulbecco's minimum essential medium was used as a control, and was used to dilute the tested molecules.

The test system is the same in data set [4]. The experiment in a line: Hoechst 33342 test (chromatin condensation, with propidium iodide). It is filed as cell-based. To be noted: for chromatin condensation: increasing concentrations >1 µg/ml; for chromatin condensation compared to control cells: up to 1 µg/ml. On the procedure:
as §1
The value of IC50 (concentration inhibiting 50% of cell population) was used to compare 5-FU and 5-CU cytotoxicities. Dulbecco's minimum essential medium was used as a control, and was used to dilute the tested molecules.

The subject of data set [5] is rabbit Tenon's capsule fibroblasts. The conditions noted are these: for cell death: sub-confluent fibroblasts, 24 hours. On the procedure: Cells were seeded at a density of 2 x 10^4 cells / well until reaching subconfluency and were then treated with 5-chlorouracil (5-CU) or with 5-fluorouracil (5-FU) at different concentrations (0, 0.5, 5, 50, 500, 1'000 or 5'000 µg/ml) for 24 hours.
MTT (Sigma) (1mg/ml in PBS) was added to the wells and plates were incubated at 37°C for 1 hour. Isopropanol was then added and mixed thoroughly to dissolve the dark blue crystals and the plates were rapidly read on a BIO-RAD Model 450 Microplate reader, using a test wavelength of 570 nm and a reference wavelength of 630 nm.

The nature of data set [6]: In vitro rate of release from POE IV formulation. The format is physicochemical. The method, then: Formulations were prepared under a laminar airflow hood. […] The viscous mixture was conditioned in a 1.0 ml syringe, each sample being 200µl (240 mg). In a preliminary investigation, the in vitro rate of release of 5-CU was determined according to the procedure described by Merkli et al., 1998, J. Control. […] 5-FU in vitro rate of release from POE IV has also previously been described by Heller et al, 2005, Adv. Drug Delivery Rev., 57(14)2053-62.

[7] abbreviates: Hoechst and neutral red results combined, 72 hours of exposure.
The mark [8] stands for this setting: Hoechst test, high concentrations.

Molecules are shown by their SMILES. Converted amounts (≈) assume the structure as drawn. Read-outs that look alike come from different tables or passages of the source.

As for `O=c1[nH]cc(F)c(=O)[nH]1` [5-FU, 5-fluorouracil], the “concentration at which inhibition of cell proliferation is significant” value with rabbit fibroblasts was at least 10 µg/mL. Moreover, in the data set on rabbit fibroblasts, the inhibition at 10 µg/mL worked out at 28%. Also, the inhibition at 20 µg/mL in the data set with rabbit fibroblasts was 40%. Also, the inhibition at 100 µg/mL with rabbit fibroblasts amounted to 43%. The corneal levels in data set [1] (at 1 hour) is listed as 20 µg/g; in data set [1] (at 24 hours), 5 µg/g. The “time for which ID50 levels are maintained” value in data set [1] (at the injection site and 180° from it) is on record as “up to 24 hours”. In data set [2], the “in vitro rate of release from POE IV” value is reported as 100 µg per day. Moreover, the cell death in data set [3] (24 hour-incubation, 100 µg/ml) was 55%; in data set [5] (5 µg/ml), 39.1%; in data set [5] (50 µg/ml), 51%. For the same compound, in data set [3] (24 hour-incubation), the cell viability decrease entry is on record as “about 20%”. Further, the cellular viability entry in data set [3] (72 hour-incubation, 1 µg/ml) is given as “significantly decreased”. In addition, the IC50 in data set [3] amounted to 7 µg/mL (≈ 0.0538 mM). The chromatin condensation entry was “dose-dependant significant decrease” in data set [4] (24 hours, P=0.0079) and “dose-dependant significant decrease” in data set [4] (72 hours, P=0.02). Further, the “chromatin condensation compared to control cells” value in data set [4] (24 hours) is on record as “no significant difference”. The figures for the “type of cell death induced” value in data set [4] (setting [7]) and in data set [4] (setting [8]) were “apopto-necrotic cell death” and “necrotic cell death”, respectively.
For `O=c1[nH]cc(Cl)c(=O)[nH]1` [5-CU, 5-chloro-1H-pyrimidine-2,4-dione], in the data set with rabbit fibroblasts, the “concentration at which inhibition of cell proliferation is significant” value is at least 10 µg/mL, the inhibition at 10 µg/mL was 23%, the inhibition at 20 µg/mL stood at 23% and the inhibition at 100 µg/mL worked out at 25%. In data set [6] (1% 5-CU from POE IV formulation, for up to forty days), the daily release rate result is “approximately 8 µg/day”. In data set [6] (from POE IV, 1% wt/wt, over a period of up to 40 days, preliminary investigation), the “in vitro rate of release” value came to 8 micrograms per day. This compound gave a cell death in data set [3] (24 hour-incubation, 1'000 µg/ml) of 35%. Besides, in data set [3] (24 hour-incubation), the cell viability decrease entry is “about 20%”. The same compound gave a cell death in data set [3] (72 hour-incubation, 4 mg/ml (highest concentration)) of 75%. In data set [3], this compound returned an IC50 of 2500 µg/mL (≈ 17.1 mM). Besides, the “Hoechst fluorescence compared with identical 5-FU concentrations” value in data set [4] (24 hours, increasing concentrations up to 1'000 µg/ml, P=0.0079) is recorded as “very significant increase”. Further, the “chromatin condensation compared to control cells” value in data set [4] (24 hours) is on record as “no significant difference”. The “type of cell death induced” value in data set [4] (setting [7]) is “apoptotic cell death”. For the same compound, the “type of cell death induced” value in data set [4] (setting [8]) is given as “apoptotic cell death”. Besides, the “times less toxic to non-proliferating cells than 5-FU” value in data set [5] (rabbit, 24 h) is 1'000 times. This compound yielded a cell death in data set [5] (5'000 µg/ml) of 33%.

The values above are taken from patent publication EP2042178A1, “Ocular formulations comprising 5-chlorouracil and use thereof” (INSTITUT NATIONAL DE LA SANTE ET DE LA RECHERCHE MEDICALE …, priority 2007, dated 2009).
